In brackets after ≈: the same amount, converted by molar mass.
What was measured:
Type in all cases: functional
[1] = system: Staphylococcus aureus; experiment: Antibacterial activity against Staphylococcus aureus ATCC 29213 after 18 to 24 hrs
[2] = system: Enterococcus faecalis; experiment: Antibacterial activity against Enterococcus faecalis ATCC 29212 after 18 to 24 hrs
[3] = system: Escherichia coli; experiment: Antibacterial activity against Escherichia coli ATCC 25922 after 18 to 24 hrs
[4] = system: Pseudomonas aeruginosa; experiment: Antibacterial activity against Pseudomonas aeruginosa ATCC 27853 after 18 to 24 hrs
[5] = system: Staphylococcus aureus; experiment: Antibacterial activity against methicillin-resistant Staphylococcus aureus ATCC 43300 after 18 to 24 hrs
[6] = system: Streptococcus pyogenes; experiment: Antibacterial activity against Streptococcus pyogenes ATCC 19615 after 18 to 24 hrs
[7] = system: Streptococcus pneumoniae; experiment: Antibacterial activity against Streptococcus pneumoniae ATCC 49619 after 18 to 24 hrs

SMILES: Cl.N#Cc1ccc(CN2C(=O)C(CCOc3ccc(CCN)cc3)Oc3ccccc32)cc1 (stereo not drawn)
- MIC [1]: 64 µg/mL
- MIC [2]: 64 µg/mL

SMILES: COc1cc(C=C2C(=O)NC(=O)NC2=O)cc(OC)c1OC
- MIC [1]: > 128 µg/mL
- MIC [3]: > 128 µg/mL
- MIC [2]: > 128 µg/mL
- MIC [4]: > 128 µg/mL

SMILES: O=C1NC(=O)C(=Cc2ccc(F)c(F)c2F)C(=O)N1
- MIC [1]: 32 µg/mL (≈ 118 µM)
- MIC [3]: > 128 µg/mL
- MIC [2]: > 128 µg/mL
- MIC [4]: > 128 µg/mL
- MIC [5]: 128 µg/mL (≈ 474 µM)

SMILES: O=C1NC(=S)S/C1=C\CC1Oc2ccccc2N(Cc2ccc(Cl)cc2)C1=O (stereo not drawn)
- MIC [1]: 32 µg/mL (≈ 74.3 µM)
- MIC [3]: > 128 µg/mL
- MIC [2]: > 128 µg/mL
- MIC [4]: > 128 µg/mL

SMILES: N#Cc1ccc(CN2C(=O)C(C/C=C3\SC(=S)NC3=O)Oc3ccccc32)cc1 (stereo not drawn)
- MIC [1]: 32 µg/mL (≈ 75.9 µM)
- MIC [3]: > 128 µg/mL
- MIC [2]: 32 µg/mL (≈ 75.9 µM)
- MIC [4]: > 128 µg/mL

SMILES: Cl.NCCc1ccc(OCCC2Oc3ccccc3N(Cc3ccc(Cl)cc3)C2=O)cc1 (stereo not drawn)
- MIC [1]: 8 µg/mL
- MIC [2]: 16 µg/mL

SMILES: O=C1NC(=O)/C(=C/c2ccc(F)c(F)c2F)S1
- MIC [1]: 32 µg/mL (≈ 123 µM)
- MIC [3]: > 128 µg/mL
- MIC [2]: > 128 µg/mL
- MIC [4]: > 128 µg/mL
- MIC [5]: 64 µg/mL (≈ 247 µM)

SMILES: COc1cc(/C=C2\SC(=O)NC2=O)cc(OC)c1OC
- MIC [1]: > 128 µg/mL
- MIC [3]: > 128 µg/mL
- MIC [2]: > 128 µg/mL
- MIC [4]: > 128 µg/mL

SMILES: O=C1NC(=S)S/C1=C\c1ccc(F)c(F)c1F
- MBC [6]: > 128 µg/mL
- MIC [1]: 0.5 µg/mL (≈ 1.82 µM)
- MIC [3]: > 128 µg/mL
- MIC [2]: > 128 µg/mL
- MIC [4]: > 128 µg/mL
- MIC [5]: 32 µg/mL (≈ 116 µM)
- MBC [7]: 64 µg/mL (≈ 232 µM)

SMILES: O=C1NC(=S)S/C1=C\c1ccc(O)c(O)c1O
- MIC [1]: > 128 µg/mL
- MIC [2]: > 128 µg/mL

SMILES: O=C(O)CN1C(=O)/C(=C/c2ccc(F)c(F)c2F)SC1=S
- MIC [1]: > 128 µg/mL
- MIC [3]: > 128 µg/mL
- MIC [2]: > 128 µg/mL
- MIC [4]: > 128 µg/mL

SMILES: COc1cc(/C=C2\SC(=S)N(CC(=O)O)C2=O)cc(OC)c1OC
- MIC [1]: > 128 µg/mL
- MIC [3]: > 128 µg/mL
- MIC [2]: > 128 µg/mL
- MIC [4]: > 128 µg/mL

SMILES: COc1cc(C=C2C(=O)NC(=S)NC2=O)cc(OC)c1OC
- MIC [1]: > 128 µg/mL
- MIC [3]: > 128 µg/mL
- MIC [2]: > 128 µg/mL
- MIC [4]: > 128 µg/mL

SMILES: COc1cc(/C=C2\SC(=S)NC2=O)cc(OC)c1OC
- MBC [6]: > 128 µg/mL
- MIC [1]: 8 µg/mL (≈ 25.7 µM)
- MIC [3]: > 128 µg/mL
- MIC [2]: > 128 µg/mL
- MIC [4]: > 128 µg/mL
- MIC [5]: 128 µg/mL (≈ 411 µM)
- MBC [7]: > 128 µg/mL
